Publication PMC7792944, “Pharmacological Characterization of µ-Opioid Receptor Agonists with Biased G Protein or β-Arrestin Signaling, and Computational Study of Conformational Changes during Receptor Activation” (Molecules, 2020)
Several values for one entry are separate records, joined by “and”; a condition that tells them apart may be missing. Identical values can stand only once. Bridge positions count the residues as written; N and C are the ends. Square brackets hold non-standard residues; d marks the D form. Ends that are not written are not given here. Peptide text beside a SMILES is read from it. Phe(4-CF3) = N[C@@H](Cc1ccc(C(F)(F)F)cc1)C(=O)O; Dmt = Cc1cc(O)cc(C)c1C[C@H](N)C(=O)O

Experiments:
MOP [1] = system: MOP; design: method as in PMID 31351108; settings: Gαi2 and GαoA; ref [43]; cited from earlier work
human MOP = target: T1, human MOP (Homo sapiens, UniProt P35372); assay: [35S]GTPγS binding assay (G-protein activation) in CHO-hMOP cell membranes; format: biochemical; settings: for %Stim: efficacy normalized to the maximum stimulation caused by EM-1
T1 construct: originator Prof L. Toll, SRI International; host or cells: CHO (CHO-hMOP), membranes
T1 sequence (P35372 whole entry): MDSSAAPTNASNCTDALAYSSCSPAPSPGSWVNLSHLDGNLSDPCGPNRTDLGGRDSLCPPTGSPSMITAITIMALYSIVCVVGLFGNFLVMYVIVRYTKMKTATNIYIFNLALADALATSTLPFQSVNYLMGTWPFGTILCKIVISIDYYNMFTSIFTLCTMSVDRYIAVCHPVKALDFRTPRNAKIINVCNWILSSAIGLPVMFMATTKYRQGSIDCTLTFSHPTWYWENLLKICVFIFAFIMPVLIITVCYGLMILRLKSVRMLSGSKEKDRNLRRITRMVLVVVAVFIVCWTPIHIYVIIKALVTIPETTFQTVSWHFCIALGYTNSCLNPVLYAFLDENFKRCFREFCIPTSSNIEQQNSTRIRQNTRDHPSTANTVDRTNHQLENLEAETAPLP
Procedure: Herein, for the first time the biased agonism of F-81 and C-33 is analyzed by [^35S]GTPγS binding assay (Table 1) and PathHunter enzyme complementation assay (Table 2). [^35S]GTPγS binding assay, which characterizes ligand-driven G protein activation, was performed in CHO cells stably expressing the human MOP [46, 47].
[^35S]GTPγS binding assay. CHO cells stably expressing the human MOP receptor (in brief, CHO-hMOP cells, provided by Prof G. Calo, University of Ferrara; originator was Prof L. Toll, SRI International, Menlo Park, CA, USA) were grown in Hams F12 containing streptomycin (100 μg/mL), fungizone 2.5 μg/mL), penicillin (100 IU/mL) and 10% fetal bovine serum (FBS). Stock medium containing G418 (200 μg/mL) was used to maintain CHO-hMOP expression. Experiments were performed according to the literature. Cell membranes (5–10 µg) were incubated at 30 °C with 0.05 nM [^35S]GTPγS (PekinElmer, 549 Albany St, Boston, MA 02118, US), 10 µM GDP and various concentrations of a tested peptide in the final volume of 1 mL, for 60 min. Non-specific binding was determined using 10 µM GTPγS, and the basal binding was determined in the absence of a tested peptide. Incubations were terminated by rapid filtration through the GF/B Whatman glass fiber strips and the bound radioactivity was measured in a liquid scintillation counter. Five independent experiments were carried out. The data were analyzed by a nonlinear least square regression analysis computer program Graph Pad PRISM 5.0 (GraphPad Software Inc., San Diego, CA, USA).

[2] = target: T2, CHO-K1 OPRM1 (μ-opioid receptor (MOP))/β-arrestin 2 (Homo sapiens, UniProt P35372); assay: PathHunter enzyme complementation assay, β-arrestin 2 recruitment; format: cell-based; settings: for EC50 / %Stim: CHO-K1 OPRM1 β-arrestin 2 cell line; for EC50: mean ± SEM, n = 5; for %Stim: normalized to the maximum stimulation caused by EM-1 (100%)
T2 construct: host or cells: CHO-K1 (CHO-K1 OPRM1 β-arrestin cell line)
T2 sequence (P35372 whole entry): as above
T2 sequence (P32121 whole entry partner): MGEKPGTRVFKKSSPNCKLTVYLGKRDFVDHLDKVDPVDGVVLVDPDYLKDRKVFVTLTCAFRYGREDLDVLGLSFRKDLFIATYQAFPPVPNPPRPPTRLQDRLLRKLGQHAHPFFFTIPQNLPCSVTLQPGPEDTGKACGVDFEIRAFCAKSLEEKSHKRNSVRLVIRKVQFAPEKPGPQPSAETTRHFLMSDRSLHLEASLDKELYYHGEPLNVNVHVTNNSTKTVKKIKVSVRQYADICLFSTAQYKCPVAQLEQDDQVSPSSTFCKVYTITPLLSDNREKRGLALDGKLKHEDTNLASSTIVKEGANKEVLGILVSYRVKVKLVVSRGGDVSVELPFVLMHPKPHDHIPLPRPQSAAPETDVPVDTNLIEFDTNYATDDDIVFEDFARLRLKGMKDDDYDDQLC
Procedure: Since in most studies reported in the introduction, β-arrestin 2 was used, for easy comparison we decided to characterize this isoform, despite being the minority as compared to β-arrestin 1 in most cells, including neurons. The use of β-arrestin 2 is supported by its similarity in opioid receptor binding with β-arrestin 1 [37, 50].
Measurement of β-arrestin 2 recruitment. β-arrestin 2 recruitment at MOP was measured using the DiscoveRxPathHunter® β-arrestin kit (DiscoveRx, Fremont, CA, USA) according to manufacturer’s recommendations and previously published procedure. CHO cells were engineered to co-express the ProLink™ (PK) tagged GPCR (GPCR-PK) and the enzyme acceptor (EA) tagged β-arrestin 2 (β-arrestin-EA) (CHO-K1 OPRM1 β-arrestin cell line). Activation of the GPCR-PK induces β-arrestin-EA recruitment, forcing complementation of the two β-galactosidase enzyme fragments (EA and PK). The resulting functional enzyme hydrolyzes substrate to generate a chemiluminescent signal which was measured by luminometry. Briefly, 20 μL of PathHunter cells as taken from the kit were seeded in each well and incubated overnight at 37 °C. […] Detection Reagent Working Solution (12 μL) was added and incubation was continued for 60 min at rt. Chemiluminescent signal was read using a Viewlux imaging plate reader (PerkinElmer, Cambridge, MA, USA).

DPP IV = system: DPP IV; design: method as in ref [44] (F-81), [45] (C-33); settings: ref [44] (F-81), [45] (C-33); cited from earlier work
[3] = design: method as in ref [44] (F-81), [45] (C-33); settings: ref [44] (F-81), [45] (C-33); cited from earlier work
MOP [4] = target: MOP; design: method as in ref [44] (F-81), [45] (C-33); settings: [3H]DAMGO, human opioid receptor membranes; ref [44] (F-81), [45] (C-33); cited from earlier work
KOP = target: KOP; design: method as in ref [44] (F-81), [45] (C-33); settings: [3H]U-69593, human opioid receptor membranes; ref [44] (F-81), [45] (C-33); cited from earlier work
human recombinant MOP = settings: cited from earlier work; for MOP pEC50 (CL95%): calcium signaling via chimeric G proteins, ref [44] (EM-2, DPDPE, Dyn A, F-81); for MOP pEC50 (CL95%) / MOP α±SEM: [45] (C-33); for MOP α±SEM: maximal effect, calcium signaling, ref [44]
human recombinant DOP = system: human recombinant DOP; design: method as in ref [44], [45] (C-33); settings: ref [44], [45] (C-33), cited from earlier work; for DOP pEC50 (CL95%): calcium signaling via chimeric G proteins; for DOP α±SEM: maximal effect, calcium signaling
human recombinant KOP = system: human recombinant KOP; design: method as in ref [44], [45] (C-33); settings: ref [44], [45] (C-33), cited from earlier work; for KOP pEC50 (CL95%): calcium signaling via chimeric G proteins; for KOP α±SEM: maximal effect, calcium signaling
MOP/G-protein = settings: BRET, [45] (C-33), cited from earlier work; for MOP/G-protein α±SEM: maximal effect, ref [44]; for MOP/G-protein pEC50 (CL95%): ref [44] (EM-2, F-81)
MOP/β-arrestin 2 = settings: cited from earlier work; for MOP/β-arrestin 2 pEC50 (CL95%): ref [44] (EM-2, F-81)
DOP = settings: read-out: Ki DOP; [3H]deltorphin-2, human opioid receptor membranes; ref [44] (F-81), [45] (C-33); cited from earlier work

Molecule | EC50 (human MOP) [nM] | %Stim (human MOP; CHO-hMOP) [%] | EC50 [2] [nM] | %Stim [2] | Enzymatic stability Area [%] 120 min DPP IV (DPP IV) [%] | Enzymatic stability Area [%] 120 min Homogenate [3] [%] | Ki (MOP [4]) [nM] | Ki (KOP) [nM] | MOP pEC50 (CL95%) (human recombinant MOP) | MOP α±SEM (human recombinant MOP) | DOP pEC50 (CL95%) (human recombinant DOP) | KOP pEC50 (CL95%) (human recombinant KOP) | KOP α±SEM (human recombinant KOP) | MOP/G-protein α±SEM (MOP/G-protein) | MOP/G-protein pEC50 (CL95%) (MOP/G-protein) | MOP/β-arrestin 2 pEC50 (CL95%) (MOP/β-arrestin 2; BRET, [45] (C-33)) | Ki (DOP) [nM] | DOP α±SEM (human recombinant DOP) | further results
COc1ccsc1CNCC[C@]1(c2ccccn2)CCOC2(CCCC2)C1 [(S)-TRV130] |  |  |  |  |  |  |  |  |  |  |  |  |  |  |  |  |  |  | G protein activation, less potent compared to its (R)-isomer (MOP [1]): 90 fold
Cc1cc(O)cc(C)c1C[C@H](N)C(=O)N[C@@H]1CCCCNC(=O)C[C@@H](C(N)=O)NC(=O)[C@H](Cc2ccccc2)NC1=O [C-33, Dmt-c[D-Lys-Phe-Asp]NH2] (H-[Dmt][dK]FD-NH2; lactam 2-4) | 0.0794 | 88 ± 3 | 2.51 | 156% and 156 ± 3 % | 91.1±4.21 | 89±2.27 |  |  |  |  |  |  |  |  |  |  |  |  | 
Cc1cc(O)cc(C)c1C[C@H](N)C(=O)N[C@@H]1CCCCNC(=O)C[C@@H](C(N)=O)NC(=O)[C@H](Cc2ccc(C(F)(F)F)cc2)NC(=O)[C@H](Cc2ccccc2)NC1=O [F-81, Dmt-c[D-Lys-Phe-p-CF3-Phe-Asp]NH2] (H-[Dmt][dK]F[Phe(4-CF3)]D-NH2; lactam 2-5) | 0.112 | 68 ± 1 | 0.398 | 41% and 41 ± 15 % | 92.1±3.27 | 90.7±3.14 | 2.4 | 31.1 | 8.19 | 0.8±0.05 | inactive | 8.22 | 0.63±0.04 | 0.82±0.04 | 8.28 | inactive | > 1000 |  | Class (human MOP; CHO-hMOP, [35S]GTPγS binding): high efficacy partial agonist; agonist behaviour, β-arrestin 2 recruitment (in words) ([2]; PathHunter, compared to EM-1): low efficacy partial agonist; higher potency than the reference EM-2 (human recombinant MOP; calcium mobilization assay, MOP, ref [44],[45]): 2 fold; receptor/β-arrestin interaction (in words) (MOP/β-arrestin 2; BRET, ref [44]): did not promote receptor/β-arrestin interaction
DPDPE |  |  |  |  |  |  |  |  | inactive |  | 7.33 | inactive |  |  |  |  |  | 1.00 | 
Dyn A: reference agonist in calcium mobilization assay (KOP) |  |  |  |  |  |  |  |  | 6.67 | 0.83±0.10 | 7.73 |  | 1.00 |  |  |  |  | 0.99±0.04 | 
Tyr-Pro-Phe-Phe-NH2 (YPFF-NH2) [EM-2, reference compound] |  |  |  |  | 1.9±0.03 | 6.5±0.15 | 2.5 ± 0.05 | > 1000 | 7.83 | 1.00 | inactive | inactive |  | 1.00 | 7.32 | 7.20 | > 1000 |  | MOP/β-arrestin 2 α±SEM (MOP/β-arrestin 2; BRET, maximal effect, ref [44], [45] (C-33)): 1.00; bias factor (CL95%) (MOP/β-arrestin 2; calculated by using EM-2 as a standard unbiased ligand, ref [44], [45] (C-33)): 0.00
